In patent US9382213B2, “Heterocyclic and cyclic analogs of propargyl-linked inhibitors of dihydrofolate reductase” (PROMILIAD BIOPHARMA INC., priority 2014, dated 2016):
Converted amounts (≈) assume the structure as drawn. Like-named read-outs stand apart in the source and are kept apart here.

Columns and labels:
[1] = biological target: T1, hDHFR (Homo sapiens, UniProt P00374); assay: DHFR enzyme inhibition (NADPH consumption at 340 nm), human DHFR; format: biochemical
T1 sequence (P00374 1-187): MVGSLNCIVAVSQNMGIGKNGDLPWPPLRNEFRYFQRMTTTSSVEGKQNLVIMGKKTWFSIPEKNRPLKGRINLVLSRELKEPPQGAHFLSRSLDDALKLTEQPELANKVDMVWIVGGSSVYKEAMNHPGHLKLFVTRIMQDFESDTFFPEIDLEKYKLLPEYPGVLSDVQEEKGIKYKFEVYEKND
Procedure: (§1) Enzyme inhibition was determined by monitoring the consumption of NADPH at 340 nm for one minute. Reactions were performed with 20 mM TES pH 7.0, 50 mM KCl, 10 mM 2-mercaptoethanol, 0.5 mM EDTA and 1 mg/mL bovine serum albumin. Saturating concentrations of cofactor (100 μM NADPH) and substrate (100 μM dihydrofolate) were used with a limiting concentration of enzyme. All assays were conducted in triplicate at 25° C.

[2] = test system: Human MCF-10; assay: Mammalian cell cytotoxicity; format: cell-based
[3] = biological target: T2, CaDHFR (Candida albicans, UniProt P22906); assay: DHFR enzyme inhibition (NADPH consumption at 340 nm), C. albicans DHFR; format: biochemical
T2 construct: made in house
T2 sequence (P22906 1-192): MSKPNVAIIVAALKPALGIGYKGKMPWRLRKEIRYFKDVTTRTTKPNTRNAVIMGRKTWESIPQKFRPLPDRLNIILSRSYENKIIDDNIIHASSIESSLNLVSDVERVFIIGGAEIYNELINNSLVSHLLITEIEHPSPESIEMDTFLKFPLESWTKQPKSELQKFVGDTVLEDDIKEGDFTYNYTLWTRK
Procedure: (§2) Med. Chem., 17:4866-4872 (2009)). Crystallization of the protein with ligand also followed previously described procedures (Paulsen et al 2011). Data were collected at Brookhaven National Laboratory, beamline X4A (CaDHFR) or X4C (CgDHFR). Molecular replacement was used to determine all three structures. Initial phase information was obtained using Phaser; electron density and model building used Coot. Refinement was carried out with Refmac 5 as part of the CCP4 package. Procheck was used to assess model quality.
as §1

[4] = test system: C. albicans (strain SC5314); assay: Antifungal activity (MIC), Alamar Blue cell viability; format: cell-based, Candida albicans; conditions: strain SC5314, GSB media, Alamar Blue after 24 hour incubation; for MIC: Candida albicans, SC5314, 24 h
Procedure: (§3) Stock cultures of C. albicans (strain SC5314) or C. glabrata (strain NCCLS84), thawed from storage in 50% glycerol at −80° C., were streaked on YM agar plates and grown at 37° C. for 48 hours. Isolated colonies from the plate were suspended in 100 mL of glucose-salt-biotin (GSB) media containing ammonia chloride (2 g), potassium phosphate (0.35 g), magnesium sulfate (0.24 g), sodium citrate (0.3 g), piperazine-N,N′-bis[2-ethanesulfonic acid] (3.4 g), biotin (40 mg) and glucose (20 g) in 1 L of water at a final pH of 7.1. […] An aliquot was removed from the shake flask culture, diluted to between 1×10^5 and 1×10^6 cells/mL in GSB media, and added to 96 well test plates (100 μL per well) containing test compounds dispensed in DMSO (1 μL). Amphotericin B and itraconazole were used as controls. C. albicans cell viability was determined by the addition of Alamar Blue (10 μL) to each well after a 24 hour incubation period. […] The XTT Cell Proliferation kit (ATCC) was used as an alternative. Tetrazolium dye, XTT, along with an electron activating reagent (50 μL) was added to 96 well plates and incubated for 24 hours at 37° C. Cell viability is indicated by a color change from a dark orange to a bright orange color that can be detected at […].

[5] = Kinetic solubility; format: physicochemical; conditions: water, 0.2% DMSO, room temperature 30 min, HPLC
Procedure: Compounds were initially dissolved as […] dimethyl sulfoxide (DMSO) solutions and diluted in filtered water in the presence or absence of 200 μg/ml methylcellulose (METHOCEL A4M; Dow Corning, Midland, Mich.). Final concentration of DMSO of all samples is 0.2%. All samples were incubated at room temperature for 30 min and centrifuged for 10 min at 15,000 rpm. Supernatant of the samples were analyzed by reversed phase HPLC. The mobile phase consisted of 50% acetonitrile (ACN) and 50% potassium phosphate buffer (50 mM, pH 7.0), using an isocratic flow rate of 1.5 ml/min. Solubility was determined as the maximal concentration for which absorption is linearly related to the log of the concentration.

[6] = biological target: T3, CgDHFR (Candida glabrata, UniProt Q6FPH0); assay: DHFR enzyme inhibition (NADPH consumption at 340 nm), C. glabrata DHFR; format: biochemical; conditions: 100 μM NADPH, 100 μM dihydrofolate, pH 7.0, 25° C., triplicate
T3 construct: made in house
Procedure: as §2, §1

[7] = test system: C. glabrata (strain NCCLS84); assay: Antifungal activity (MIC), XTT cell viability; format: cell-based, Candida glabrata; conditions: strain NCCLS84, GSB media
Procedure: as §3

[8] = 100 μM NADPH, 100 μM dihydrofolate, pH 7.0, 25° C., triplicate
[9] = MCF10, Human MCF-10 cells, read-out: IC50 Human MCF-10

T3 sequence (Q6FPH0 entry or part of it): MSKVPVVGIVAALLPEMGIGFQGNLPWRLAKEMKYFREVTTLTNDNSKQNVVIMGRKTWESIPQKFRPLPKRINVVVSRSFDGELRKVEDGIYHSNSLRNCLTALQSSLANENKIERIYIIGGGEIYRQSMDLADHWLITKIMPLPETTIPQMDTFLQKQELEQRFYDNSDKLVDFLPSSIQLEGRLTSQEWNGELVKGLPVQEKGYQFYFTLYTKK

SMILES | IC50 [1, 8] [nM] | IC50 ([2]; Homo sapiens, MCF10, read-out: IC50 Human MCF-10) [nM] | melting point [°C] | IC50 [3, 8] [nM] | IC50 [2, 9] [nM] | IC50 ([1]; pH 7) [nM] | IC50 ([3]; pH 7) [nM] | MIC [4] [µg/mL] | MIC C. albicans [4] [µg/mL] | solubility [5] [µg/mL] | IC50 [6] [nM] | MIC C. glabrata [7] [µg/mL] | MIC ([7]; Nakaseomyces glabratus) [µg/mL]
CCc1nc(N)nc(N)c1C#CC(C)c1ccc(-c2ccc(O)cc2)cc1OC (centres unmarked) [Compound 30, 4′-[3-(2,4-Diamino-6-ethyl-pyrimidin-5-yl)-1-methyl-prop-2-ynyl]-3′-methoxy-biphenyl-4-ol] | 136 | 148000 | 188.1 to 189.3 | 39 | – | – | – | – | – | – | – | – | –
CCc1nc(N)nc(N)c1C#CC(C)c1ccc(-c2ccc(C#N)cc2)cc1OC (centres unmarked) [Compound 32, 4′-[3-(2,4-Diamino-6-ethyl-pyrimidin-5-yl)-1-methyl-prop-2-ynyl]-3′-methoxy-biphenyl-4-carbonitrile] | 477 | – | 130.9 to 133.1 | 50 | 50000 | – | – | – | – | – | – | – | –
CCc1nc(N)nc(N)c1C#CC(C)c1ccc(-c2ccc(OC(N)=O)cc2)cc1OC (centres unmarked) [Compound 33, Carbamic acid 4′-[3-(2,4-diamino-6-ethyl-pyrimidin-5-yl)-1-methyl-prop-2-ynyl]-3′-methoxy-biphenyl-4-yl ester] | 170 | – | – | 18 | – | – | – | – | – | – | – | – | –
CCc1nc(N)nc(N)c1C#CC(C)c1ccc(-c2ccc(C(=O)OC)cc2)cc1OC (centres unmarked) [Compound 34, 4′-[3-(2,4-Diamino-6-ethyl-pyrimidin-5-yl)-1-methyl-prop-2-ynyl]-3′-methoxy-biphenyl-4-carboxylic acid methyl ester] | 49 | – | 168.2 to 170.8 | 46 | 96000 | – | – | – | – | – | – | – | –
CCc1nc(N)nc(N)c1C#CC(C)c1ccc(-c2ccc(N(C)C)cc2)cc1OC (centres unmarked) [Compound 35, 5-[3-(4′-Dimethylamino-3-methoxy-biphenyl-4-yl)-but-1-ynyl]-6-ethyl-pyrimidine-2,4-diamine] | – | – | 135.2 to 136.1 | – | – | 147 | 64 | – | – | – | – | – | –
CCc1nc(N)nc(N)c1C#CC(C)c1ccc(-c2ccccc2)nc1 (centres unmarked) [Compound 46, 6-Ethyl-5-[3-(6-phenyl-pyridin-3-yl)-but-1-ynyl]-pyrimidine-2,4-diamine] | 688 | – | – | – | – | – | – | 0.2 to 0.78 (≈ 0.582 to 2.27 µM) | 0.39 (≈ 1.14 µM) | 20 (≈ 58.2 µM) | 23 | 0.78 (≈ 2.27 µM) | –
CCc1nc(N)nc(N)c1C#CC(C)c1ccc(-c2ccc(C)cc2)nc1 (centres unmarked) [Compound 47, 6-Ethyl-5-[3-(6-p-tolyl-pyridin-3-yl)-but-1-ynyl]-pyrimidine-2,4-diamine] | 625 | – | 144 to 146.1 | – | – | – | 49 | 0.2 to 0.78 (≈ 0.56 to 2.18 µM) | 0.39 (≈ 1.09 µM) | 15 (≈ 42 µM) | 27 | 0.2 (≈ 0.56 µM) | 0.2 to 0.78 (≈ 0.56 to 2.18 µM)
CCc1nc(N)nc(N)c1C#CC(C)c1cnc(-c2ccccc2)nc1 (centres unmarked) [Compound 48, 6-Ethyl-5-[3-(2-phenyl-pyrimidin-5-yl)-but-1-ynyl]-pyrimidine-2,4-diamine] | 180 | – | 161.3 to 162.8 | 37 | 216000 | – | – | 0.2 to 0.78 (≈ 0.581 to 2.26 µM) | 0.19 (≈ 0.552 µM) | 60 (≈ 174 µM) | 22 | 0.78 (≈ 2.26 µM) | –
